Structures can show the parent of a compound that is named as a salt.

The target in the first experiment is SARS-CoV-2 Mac1 (Severe acute respiratory syndrome coronavirus 2, UniProt P0DTD1). As to the kind of experiment: biochemical. As to conditions: 100 µM; inhibitor.
As for `CCN(CC)Cc1cc(Nc2ccnc3cc(Cl)ccc23)ccc1O` [Amodiaquine dihydrochloride dihydrate], the %inhibition (in general, the percentage by which the read-out fell short of the control) stood at 0%.

For `O=C(O)c1ccccc1` [Sodium benzoate], the “%inhibition” value is 0%. Take `C=C1[C@H](CO)[C@@H](O)C[C@@H]1n1cnc2c(=O)[nH]c(N)nc21` [Entecavir Hydrate]: the “%inhibition” value turned out to be 11.65%. Consider `Cc1nnc(C(=O)NC(C)(C)c2nc(C(=O)NCc3ccc(F)cc3)c(O)c(=O)n2C)o1` [Raltegravir (MK-0518)], for which the “%inhibition” value is on record as 3.868%. Take `C[C@@H](CN1CC(=O)NC(=O)C1)N1CC(=O)NC(=O)C1` [Dexrazoxane]: the “%inhibition” value stood at 12.37%.

As for `CNC[C@H](O)c1ccc(O)c(O)c1` [Epinephrine HCl], the “%inhibition” value was 5.697%.

`CS(=O)(=O)CCNCc1ccc(-c2ccc3ncnc(Nc4ccc(OCc5cccc(F)c5)c(Cl)c4)c3c2)o1` [Lapatinib ditosylate monohydrate]: the “%inhibition” value was determined as 13.25%.

Regarding `O=C1O[C@H]([C@@H](O)CO)C(O)=C1O` [Vitamin C], the “%inhibition” value is given as 15.62%.

As for `CCN1CC(CCN2CCOCC2)C(c2ccccc2)(c2ccccc2)C1=O` (centres unmarked) [Doxapram], the “%inhibition” value came to 4.735%. On to `CCn1cc(C(=O)O)c(=O)c2cc(F)c(N3CCNCC3)nc21` [Enoxacin Sesquihydrate], for which the “%inhibition” value is 0%.

The same experiment, now with this note: read-out: %inhibition.
Consider `CC/C=C(\C(=O)N[C@@H]1C(=O)N2C(C(=O)OCOC(=O)C(C)(C)C)=C(COC(N)=O)CS[C@H]12)c1csc(N)n1` [Cefcapene Pivoxil Hydrochloride], for which the inhibition (as a rule, the share of the control response that was lost under treatment) at 100 µM was 0.547%. Take `OC(CCCN1CCCCC1)(c1ccccc1)c1ccccc1` [Diphenidol HCl]: the inhibition at 100 µM came to 3%. Regarding `CC1(C)O[C@@H]2C[C@H]3[C@@H]4CCC5=CC(=O)CC[C@]5(C)[C@@]4(F)[C@@H](O)C[C@]3(C)[C@]2(C(=O)CCl)O1` [Halcinonide], the inhibition at 100 µM is 25.9%. With `O=C(O)c1ccccc1OP(=O)(O)O` [Fosfosal], the inhibition at 100 µM is 4.81%. Still for that read-out and setting: the result for `CCN(CC)C(=O)[C@]1(c2ccccc2)C[C@@H]1CN` (racemic) [Milnacipran HCl] reads 0%; that for `Cc1ccccc1-n1c(CF)nc2ccc(N)cc2c1=O` [Afloqualone], 0%; that for `NC[C@H](CC(=O)O)c1ccc(Cl)cc1` [(R)-baclofen], 0%. Regarding `Cc1ccc(O)c([C@H](CCN(C(C)C)C(C)C)c2ccccc2)c1` [Tolterodine tartrate], the inhibition at 100 µM is 34.1%.

Turning to `Cc1cc(-n2c(=O)[nH]c(=O)n(C)c2=O)ccc1Oc1ccc(SC(F)(F)F)cc1` [Toltrazuril], the inhibition at 100 µM worked out at 0%. Same read-out and setting: the result for `COc1ccc(-c2cc(=O)c3c(O)cc(O[C@@H]4O[C@H](CO[C@@H]5O[C@@H](C)[C@H](O)[C@@H](O)[C@H]5O)[C@@H](O)[C@H](O)[C@H]4O)cc3o2)cc1O` [Diosmin] reads 11.9%.

As for `COc1cc(N)c(Cl)cc1C(=O)N[C@@H]1CCN(CCCOc2ccc(F)cc2)C[C@@H]1OC` [Cisapride], the inhibition at 100 µM was found to be 1.02%. On to `Nc1ccn([C@@H]2O[C@H](CO)[C@@H](O)[C@@H]2O)c(=O)n1` [Cytarabine], for which the inhibition at 100 µM came to 0%. As for `CCCCC(CC)COC(=O)CC(C(=O)OCC(CC)CCCC)S(=O)(=O)O` (centres unmarked) [Docusate Sodium], the inhibition at 100 µM came out at 14.3%. On the same count and under the same terms, the result for `COC(=O)N[C@H](C(=O)N1CCC[C@H]1c1nc(-c2ccc3c(c2)O[C@@H](c2ccccc2)n2c-3cc3cc(-c4c[nH]c([C@@H]5CCCN5C(=O)[C@@H](NC(=O)OC)C(C)C)n4)ccc32)c[nH]1)C(C)C` [Elbasvir] reads 8.16%; that for `COc1ccc(CCNCC(O)COc2cccc(C)c2)cc1OC` (centres unmarked) [Bevantolol hydrochloride], 17.4%; that for `Nc1ncnc2c1ncn2[C@@H]1O[C@H](CO)[C@@H](O)[C@@H]1O` [Vidarabine monohydrate], 9.49%.

Consider `Cc1cccc(CN2CCN(C(c3ccccc3)c3ccc(Cl)cc3)CC2)c1` (centres unmarked) [Meclizine 2HCl], for which the inhibition at 100 µM worked out at 9.09%. As for `NC(=O)CC[C@H](N)C(=O)O` [L-Glutamine], the inhibition at 100 µM came to 0%. As for `O=C(Nc1nc2cccc(-c3ccc(CN4CCS(=O)(=O)CC4)cc3)n2n1)C1CC1` [Filgotinib (GLPG0634)], the inhibition at 100 µM was 17%.

In the case of `Cc1cccc(N(C)C(=S)Oc2ccc3ccccc3c2)c1` [Tolnaftate], the inhibition at 100 µM is 0%. `C[C@H](CCC(=O)O)[C@H]1CC[C@H]2[C@@H]3CC[C@@H]4C[C@H](O)CC[C@]4(C)[C@H]3C[C@H](O)[C@]12C` [Deoxycholic acid]: the inhibition at 100 µM stood at 0%.

On to `C=C1CC[C@H](O)C/C1=C/C=C1\CCC[C@]2(C)[C@@H]([C@H](C)/C=C/[C@H](C)C(C)C)CC[C@@H]12` [Vitamin D2], for which the inhibition at 100 µM is 0%. On to `C[C@H]1C[C@@H]2[C@H]([C@@H](O)C[C@@]3(C)[C@H]2CC[C@]3(O)C(=O)CO)[C@@]2(C)C=CC(=O)C=C12` [Methylprednisolone], for which the inhibition at 100 µM turned out to be 39.6%.

Regarding `CCC[C@@H]1CC(=O)N([C@@H](CC)C(N)=O)C1` [Brivaracetam], the inhibition at 100 µM amounted to 24.6%. Turning to `CCCC(=O)OCOC(=O)C1=C(C)NC(C)=C(C(=O)OC)C1c1cccc(Cl)c1Cl` (centres unmarked) [Clevidipine Butyrate], the inhibition at 100 µM is 0%. Take `CCC(=O)O[C@]1(C(=O)CCl)[C@@H](C)C[C@H]2[C@@H]3C[C@H](F)C4=CC(=O)C=C[C@]4(C)[C@@]3(F)[C@@H](O)C[C@@]21C` [Halobetasol Propionate]: the inhibition at 100 µM is 24.3%. For `CO/N=C(\C(=O)N[C@@H]1C(=O)N2C(C(=O)O)=C(COC(C)=O)CS[C@H]12)c1csc(N)n1` [Cefotaxime sodium], the inhibition at 100 µM was determined as 0.981%.

On to `COC(=O)C1=CCCN(C)C1` [Arecoline HBr], for which the inhibition at 100 µM stood at 3.01%.

`C/C=C(\C)C(=O)O[C@H]1[C@H](OC(C)=O)[C@@]2(CO)C(CC1(C)C)C1=CCC3[C@@]4(C)CCC(O[C@@H]5O[C@H](C(=O)O)[C@@H](O[C@@H]6O[C@H](CO)[C@@H](O)[C@H](O)[C@H]6O)[C@H](O)[C@H]5O[C@@H]5O[C@H](CO)[C@@H](O)[C@H](O)[C@H]5O)[C@](C)(CO)C4CC[C@@]3(C)[C@]1(C)C[C@H]2O` (some centres unmarked) [Escin]: the inhibition at 100 µM came out at 6.9%. As for `COc1cc([C@H]2Oc3cc([C@H]4Oc5cc(O)cc(O)c5C(=O)[C@@H]4O)ccc3O[C@@H]2CO)ccc1O` [Silibinin], the inhibition at 100 µM was 0%. Same read-out and setting: under `CC(=O)N(CC(O)CN(C(C)=O)c1c(I)c(C(=O)NC[C@@H](O)CO)c(I)c(C(=O)NC[C@@H](O)CO)c1I)c1c(I)c(C(=O)NC[C@@H](O)CO)c(I)c(C(=O)NC[C@@H](O)CO)c1I` [Iodixanol] stands 0.797%; under `CC(=O)Oc1ccccc1C(=O)Nc1ncc([N+](=O)[O-])s1` [Nitazoxanide], 0%; under `NCCC(O)(P(=O)(O)O)P(=O)(O)O` [Pamidronate Disodium], 0.654%. As for `O=C1NC(=O)C(c2ccccc2)(c2ccccc2)N1` [Phenytoin], the inhibition at 100 µM is 14.7%.

With `COc1ccc(C[C@H](N)C(=O)N[C@H]2[C@@H](O)[C@H](n3cnc4c(N(C)C)ncnc43)O[C@@H]2CO)cc1` [Puromycin 2HCl], the inhibition at 100 µM was determined as 4.39%.

For the compound `CNS(=O)(=O)C[C@H]1CC[C@H](N(C)c2[nH]cnc3nccc2-3)CC1` [Oclacitinib?maleate], the inhibition at 100 µM turned out to be 0%. On to `Nc1nc2[nH]cc(CCc3ccc(C(=O)N[C@@H](CCC(=O)O)C(=O)O)cc3)c2c(=O)[nH]1` [Pemetrexed Disodium Hydrate], for which the inhibition at 100 µM amounted to 6.24%. For `COc1cc2nc(N(C)CCCNC(=O)C3CCCO3)nc(N)c2cc1OC` (centres unmarked) [Alfuzosin HCl], the inhibition at 100 µM was found to be 0%. The same measure, in the same setting: the result for `Cc1cccn2c(=O)c(-c3nnn[nH]3)cnc12` [Pemirolast potassium] reads 0%; that for `COc1c(N2CCNC(C)C2)c(F)cc2c(=O)c(C(=O)O)cn(C3CC3)c12` (centres unmarked) [Gatifloxacin], 1.88%. Take `N[C@@H](CSCCCO)C(=O)O` [Fudosteine]: the inhibition at 100 µM came out at 0%.

With `CC(C)OC(=O)[C@H](C)N[P@](=O)(CO[C@H](C)Cn1cnc2c(N)ncnc21)Oc1ccccc1` [Tenofovir Alafenamide (GS-7340)], the inhibition at 100 µM came out at 10.7%. Still for that read-out and setting: the result for `CCOC(=O)[C@H](CCc1ccccc1)N[C@@H](C)C(=O)N1C(=O)N(C)C[C@H]1C(=O)O` [Imidapril HCl] reads 0%; that for `CNC(C)Cc1ccccc1OC` (centres unmarked) [Methoxyphenamine Hydrochloride], 0%; that for `C=C1/C(=C\C=C2/CCC[C@]3(C)[C@@H]([C@H](C)/C=C/[C@H](C)C(C)C)CC[C@@H]23)C[C@@H](O)C[C@@H]1O` [Doxercalciferol], 0%. As to `CNC(=O)[C@@H](NC(=O)[C@H](CC(C)C)[C@H](O)C(=O)NO)C(C)(C)C` [Marimastat (BB-2516)], the inhibition at 100 µM amounted to 3.16%. Consider `CC1(C)[C@H](C(=O)O)N2C(=O)C[C@H]2S1(=O)=O` [Sulbactam sodium], for which the inhibition at 100 µM was found to be 16.4%. As to `CCOc1cc2ncc(C#N)c(Nc3ccc(OCc4ccccn4)c(Cl)c3)c2cc1NC(=O)/C=C/CN(C)C` [Neratinib (HKI-272)], the inhibition at 100 µM was found to be 4.82%. Consider `COc1cc2/c(=N/c3ccc(Br)cc3F)nc[nH]c2cc1OCC1CCN(C)CC1` [Vandetanib (ZD6474)], for which the inhibition at 100 µM is 35.2%.

On to `C1CNCCN1` [Piperazine], for which the inhibition at 100 µM was 5.65%. For the compound `N[C@@H]1CN(c2c(F)cc3c(=O)c(C(=O)O)cn([C@@H]4C[C@@H]4F)c3c2Cl)CC12CC2` [Sitafloxacin Hydrate], the inhibition at 100 µM was 5.2%. Take `COc1cc2c(cc1OC)[C@H]1C[C@@H](OC(=O)[C@@H](N)C(C)C)[C@H](CC(C)C)CN1CC2` [Valbenazine tosylate]: the inhibition at 100 µM worked out at 13.2%. In the case of `O=[N+]([O-])c1ccc(O)c2ncccc12` [Nitroxoline], the inhibition at 100 µM came out at 0%.

`CC(C)C(=O)Nc1ccc([N+](=O)[O-])c(C(F)(F)F)c1` [Flutamide]: the inhibition at 100 µM is 0%. For `CC(COc1ccccc1)N(CCCl)Cc1ccccc1` (centres unmarked) [Phenoxybenzamine HCl], the inhibition at 100 µM came to 0%.

For the origin of these results see article doi:10.1101/2021.10.07.463234v2 (biorxiv, 2021).
